This is an account of results in patent publication US20210246115A1 (Bioimics AB, priority 2017, published 2021).

Each structure is given as a SMILES string. Counter-ions that a name gives are not always drawn.

Assay [1] deals with Escherichia coli (ATCC25922). The experiment in a line: MIC, broth microdilution (CLSI), Escherichia coli. Conditions: Escherichia coli, ATCC25922, read-out: E. coli ATCC 25922 MIC, Table XIII.
Assay [2] relates to Staphylococcus aureus (ATCC25923). The experiment in a line: MIC, broth microdilution (CLSI), Staphylococcus aureus ATCC25923. Conditions: Staphylococcus aureus, ATCC25923, read-out: S. aureus ATCC 25923 MIC.
The subject of assay [3] is E. coli RNase P RNA, M1 RNA. Kind of assay: Inhibition of bacterial RNase P activity, IC50 determination (cleavage of pATSerUG by M1 RNA). Conditions: NI: No inhibition. In kind it is biochemical.

For `Cc1cccc(C(CC(=O)NCCC2CCNCC2)c2cn(Cc3ccccc3)c3ccccc23)c1.Cl` (stereo not drawn) [Compound 55, 3-(1-benzyl-1H-indol-3-yl)-N-(2-(piperidin-4-yl)ethyl)-3-(m-tolyl)propanamide hydrochloride salt], the figures for the MIC in assay [1] and in assay [2] were 264 µg/mL and 66 µg/mL, respectively. Also, the IC50 in assay [3] (hydrochloride salt) was 172 µM.

For `N[C@H]1CC[C@@H](NC(=O)c2coc(CN(CCc3c[nH]c4ccccc34)Cc3ccc(F)cc3)n2)CC1` [Compound 61, 2-(((2-(1H-indol-3-yl)ethyl)(4-fluorobenzyl)amino)methyl)-N-((1s,4s)-4-aminocyclohexyl) oxazole-4-carboxamide hydrochloride salt], the MIC in assay [1] stood at 251 µg/mL; in assay [2], 63 µg/mL. The molecule further showed an IC50 in assay [3] of 182 µM.

In the case of `Cc1cccc(C(CC(=O)N[C@H]2CC[C@H](N)CC2)c2cn(Cc3ccccc3)c3ccccc23)c1.Cl` (stereo partly drawn) [Compound 64, N-((1R,4R)-4-aminocyclohexyl)-3-(1-benzyl-1H-indol-3-yl)-3-(m-tolyl)propanamide salt], the values for the MIC in assay [1] and in assay [2] were greater than 512 µg/mL and 64 µg/mL, respectively. Also, 58 µM corresponded to half-maximal inhibition in assay [3] (IC50).

As for `COc1cccc(C(CC(=O)N[C@H]2CC[C@@H](N)CC2)c2cn(Cc3ccccc3)c3ccccc23)c1.Cl` (stereo partly drawn) [Compound 66, N-((1S,4S)-4-aminocyclohexyl)-3-(1-benzyl-1H-indol-3-yl)-3-(3-methoxyphenyl) propanamide hydrochloride salt], the values for the MIC in assay [1] and in assay [2] were 133 µg/mL and 33 µg/mL, respectively. The same molecule displayed an IC50 in assay [3] of 195 µM.

Turning to `COc1cccc(C(CC(=O)NCCC2CCNCC2)c2cn(Cc3ccccc3)c3ccccc23)c1.Cl` (stereo not drawn) [Compound 68, 3-(1-benzyl-1H-indol-3-yl)-3-(3-methoxyphenyl)-N-(2-(piperidin-4-yl)ethyl)propanamide hydrochloride salt], the MIC is greater than 512 µg/mL in assay [1] and 68 µg/mL in assay [2]. In assay [3], this molecule yielded an IC50 of 201 µM.

Regarding `Cc1cccc(C(CC(=O)NCC2CCNCC2)c2cn(Cc3ccccc3)c3ncccc23)c1.Cl` (stereo not drawn) [Compound 69, 3-(1-benzyl-1H-pyrrolo[2,3-b]pyridin-3-yl)-N-(piperidin-4-ylmethyl)-3-(m-tolyl)propanamide hydrochloride salt], the MIC in assay [1] and in assay [2] was greater than 512 µg/mL each time. Further, it took 825 µM to reach half-maximal inhibition in assay [3] (IC50).

Turning to `Cc1cccc(C(CC(=O)NC2CCNCC2)c2cn(Cc3ccccc3)c3ncccc23)c1.Cl` (stereo not drawn) [Compound 70, 3-(1-benzyl-1H-pyrrolo[2,3-b]pyridin-3-yl)-N-(piperidin-4-yl)-3-(m-tolyl)propanamide hydrochloride salt], the MIC is greater than 512 µg/mL in assay [1] and 250 µg/mL in assay [2]. Besides, the half-inhibitory concentration (IC50) in assay [3] is 1090 µM.

Regarding `Cc1cccc(C(CC(=O)N[C@H]2CC[C@H](N)CC2)c2cn(Cc3ccccc3)c3ncccc23)c1.Cl` (stereo partly drawn) [Compound 71, N-((1R,4R)-4-aminocyclohexyl)-3-(1-benzyl-1H-pyrrolo[2,3-b]pyridin-3-yl)-3-(m-tolyl)propanamide hydrochloride salt], the MIC is greater than 512 µg/mL in assay [1] and 258 µg/mL in assay [2]. Besides, in assay [3], the half-inhibitory concentration (IC50) turned out to be 269 µM.

`Cc1cccc(C(CC(=O)NC2CCNCC2)c2cn(Cc3ccccc3)c3ccccc23)c1.Cl` (stereo not drawn) [Compound 80, 3-(1-benzyl-1H-indol-3-yl)-N-(piperidin-4-yl)-3-(m-tolyl)propanamide hydrochloride salt]: the MIC in assay [1] worked out at 64 µg/mL; in assay [2], 32 µg/mL. The molecule further displayed an IC50 in assay [3] of 41 µM.

For the molecule `Cc1cccc(C(CC(=O)NC2CCNCC2)c2cn(CC3CCCCC3)c3ccccc23)c1.Cl` (stereo not drawn) [Compound 89, 3-(1-(cyclohexylmethyl)-1H-indol-3-yl)-N-(piperidin-4-yl)-3-(m-tolyl)propanamide hydrochloride salt], the MIC was 32 µg/mL in assay [1] and 8 µg/mL in assay [2]. This molecule also returned an IC50 in assay [3] of 37 µM.

`Cc1cccc(C(CC(=O)NCCC2CCNCC2)c2cn(CC3CCCCC3)c3ccccc23)c1.Cl` (stereo not drawn) [Compound 92, 3-(1-(cyclohexylmethyl)-1H-indol-3-yl)-N-(2-(piperidin-4-yl)ethyl)-3-(m-tolyl)propanamide hydrochloride salt]: the MIC in assay [1] stood at 64 µg/mL; in assay [2], 16 µg/mL. In assay [3], this molecule gave an IC50 of 45 µM.

For the molecule `Cl.N[C@H]1CC[C@H](NC(=O)CC(c2cccnc2)c2cn(Cc3ccccc3)c3ccccc23)CC1` (stereo partly drawn) [Compound 99, N-((1R,4R)-4-aminocyclohexyl)-3-(1-benzyl-1H-indol-3-yl)-3-(pyridin-3-yl)propanamide hydrochloride salt], the MIC was greater than 512 µg/mL in assay [1] and 256 µg/mL in assay [2]. The molecule also displayed an IC50 in assay [3] of 18 µM.

Regarding `Cl.N[C@H]1CC[C@H](NC(=O)CCc2cn(Cc3ccccc3)c3ccccc23)CC1` [Compound 100, N-((1R,4R)-4-aminocyclohexyl)-3-(1-benzyl-1H-indol-3-yl)propanamide hydrochloride salt], the MIC in assay [1] is greater than 512 µg/mL; in assay [2] it was 256 µg/mL. The IC50 in assay [3] came to 486 µM.

In the case of `Cl.O=C(CC(c1cscn1)c1cn(CC2CCCCC2)c2ccccc12)NC1CCNCC1` (stereo not drawn) [Compound 101, 3-(1-(cyclohexylmethyl)-1H-indol-3-yl)-N-(piperidin-4-yl)-3-(thiazol-4-yl)propanamide hydrochloride salt], the MIC in assay [1] and in assay [2] was 128 µg/mL each time. 387 µM corresponded to half-maximal inhibition in assay [3] (IC50).

Consider `Cc1cccc(C(CC(=O)NCCN(C)C)c2cn(CC3CCCCC3)c3ccccc23)c1.Cl` (stereo not drawn) [Compound 103, 3-(1-(cyclohexylmethyl)-1H-indol-3-yl)-N-(2-(dimethylamino)ethyl)-3-(m-tolyl)propanamide hydrochloride salt], for which the minimal inhibitory concentration (MIC) in assay [1] amounted to 128 µg/mL; in assay [2], 16 µg/mL. Moreover, the IC50 in assay [3] was 200 µM.

As to `Cc1cccc(C(CC(=O)N[C@H]2CC[C@H](N)CC2)c2cn(CC3CCCCC3)c3ccccc23)c1.Cl` (stereo partly drawn) [Compound 104, N-((1R,4R)-4-aminocyclohexyl)-3-(1-(cyclohexylmethyl)-1H-indol-3-yl)-3-(m-tolyl)propanamide hydrochloride salt], the results for the MIC in assay [1] and in assay [2] were 64 µg/mL and 8 µg/mL, respectively. The molecule also showed an IC50 in assay [3] of 16 µM.

As for `O=C(CC(c1cn(CC2CCCCC2)c2ccccc12)C1CCNCC1)NC1CCNCC1` (stereo not drawn) [Compound 106, 3-(1-(cyclohexylmethyl)-1H-indol-3-yl)-N,3-di(piperidin-4-yl)propanamide hydrochloride salt], the MIC in assay [1] and in assay [2] was 512 µg/mL each time. Also, inhibition in assay [3] was half-maximal at 1220 µM (IC50).

With `N[C@H]1CC[C@H](NC(=O)CC(c2cn(CC3CCCCC3)c3ccccc23)C2CCNCC2)CC1` (stereo partly drawn) [Compound 107, N-((1r,4r)-4-aminocyclohexyl)-3-(1-(cyclohexylmethyl)-1H-indol-3-yl)-3-(piperidin-4-yl)propanamide hydrochloride salt], the figures for the MIC in assay [1] and in assay [2] were greater than 512 µg/mL and 512 µg/mL, respectively. The same molecule registered an IC50 in assay [3] of 1330 µM.

For the molecule `CN(C)CCNC(=O)CC(c1cn(CC2CCCCC2)c2ccccc12)C1CCNCC1` (stereo not drawn) [Compound 108, 3-(1-(cyclohexylmethyl)-1H-indol-3-yl)-N-(2-(dimethylamino)ethyl)-3-(piperidin-4-yl) propanamide hydrochloride salt], the MIC in assay [1] and in assay [2] was greater than 512 µg/mL throughout. Also, it took 2080 µM to reach half-maximal inhibition in assay [3] (IC50).

As to `Cc1cccc(C(CC(=O)NCCC2CCNCC2)c2cn(CCC3CCCCC3)c3ccccc23)c1.Cl` (stereo not drawn) [Compound 110, 3-(1-(2-cyclohexylethyl)-1H-indol-3-yl)-N-(2-(piperidin-4-yl)ethyl)-3-(m-tolyl)propanamide hydrochloride salt], the MIC is 64 µg/mL in assay [1] and 4 µg/mL in assay [2]. Also, the IC50 in assay [3] amounted to 5.6 µM.

For the molecule `Cc1cccc(C(CC(=O)N[C@H]2CC[C@H](N)CC2)c2cn(CC3CCCC3)c3ccccc23)c1.Cl` (stereo partly drawn) [Compound 111, N-((1R,4R)-4-aminocyclohexyl)-3-(1-(cyclopentylmethyl)-1H-indol-3-yl)-3-(m-tolyl)propanamide hydrochloride salt], the MIC was 32 µg/mL in assay [1] and 4 µg/mL in assay [2]. Further, in assay [3], inhibition was half-maximal at 6.8 µM (IC50).

In the case of `Cc1cccc(C(CC(=O)NC2CCNCC2)c2cn(CC3CCCC3)c3ccccc23)c1.Cl` (stereo not drawn) [Compound 112, 3-(1-(cyclopentylmethyl)-1H-indol-3-yl)-N-(piperidin-4-yl)-3-(m-tolyl)propanamide hydrochloride salt], the MIC amounted to 64 µg/mL in assay [1] and 16 µg/mL in assay [2]. In addition, the IC50 in assay [3] came out at 68 µM.

Consider `Cc1cccc(C(CC(=O)N[C@H]2CC[C@H](N)CC2)c2cn(CCC3CCCCC3)c3ccccc23)c1.Cl` (stereo partly drawn) [Compound 113, N-((1R,4R)-4-aminocyclohexyl)-3-(1-(2-cyclohexylethyl)-1H-indol-3-yl)-3-(m-tolyl)propanamide hydrochloride salt], for which the figures for the MIC in assay [1] and in assay [2] were 512 µg/mL and 32 µg/mL, respectively. This molecule registered a 50% inhibitory concentration (IC50) in assay [3] of 14 µM.

Regarding `Cc1cccc(C(CC(=O)N[C@H]2CC[C@@H](N)CC2)c2cn(CC3CCCCC3)c3ccccc23)c1.Cl` (stereo partly drawn) [Compound 114, N-((1s,4s)-4-aminocyclohexyl)-3-(1-(cyclohexylmethyl)-1H-indol-3-yl)-3-(m-tolyl)propanamide hydrochloride salt], the MIC stood at 64 µg/mL in assay [1] and 8 µg/mL in assay [2]. Further, the IC50 in assay [3] stood at 14 µM.

`Cl.O=C(CCc1cn(CC2CCCCC2)c2ccccc12)NC1CCNCC1` [Compound 115, 3-(1-(cyclohexylmethyl)-1H-indol-3-yl)-N-(piperidin-4-yl)propanamide hydrochloride salt]: the MIC in assay [1] and in assay [2] was 128 µg/mL in each case. For the same molecule, in assay [3], the IC50 was determined as 145 µM.
